Values joined by “and” are separate entries in the source; they are usually repeats but may differ in a detail not shown here. Equal values may be shown once. Blank lines part the entries; values can stand above or below the molecule they belong to.
How the values were obtained:
[1] = test system: factor VII (F7); details: mouse liver; lipid as LNP carrier of siRNA; cited from earlier work
[2] = Average particle size (ζ-Average) and PDI by dynamic light scattering (Zetasizer Nano ZSP); type: physicochemical
Method in brief: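 Lipid nanoparticles dispersed in PBS(−) were sized by dynamic light scattering, giving the ζ-Average diameter and polydispersity index (PDI).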

[3] = Storage stability of FlucmRNA-loaded LNP at −80, 5, 25 and 40° C.; type: physicochemical
Method in brief: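 FlucmRNA-loaded LNPs held at −80, 5, 25 or 40° C; at each time point size, PDI and encapsulation measured. Quality deemed maintained while size stays within ±20 nm of preparation day, PDI ≤0.2 and encapsulation ≥80%; value is the period meeting all three.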

[4] = test system: F7; assay: In vivo F7 knockdown, plasma F7 enzyme activity (BIOPHEN FVII), Balb/c mice; details: i.v. 0.025 mg siRNA/kg, plasma at 24 hours
Method in brief: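 Female Balb/c mice, 5 weeks old, received F7 siRNA lipid nanoparticles i.v. at 0.025 mg siRNA/kg; plasma F7 activity measured chromogenically (BIOPHEN FVII) 24 h later. Values are % of untreated mice, also expressed as a ratio to MC3-containing nanoparticles set at 1.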

[5] = siRNA/mRNA encapsulation rate by Ribogreen reagent (section IV); type: physicochemical
Method in brief: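 LNPs diluted in TE buffer to 8 μg/mL nucleic acid for surface RNA, or to 1.2 μg/mL with 1% Triton X-100 for total RNA. RiboGreen fluorescence (ex 485/em 528 nm) quantified against a Triton-containing standard curve (0-2.5 μg/mL). Encapsulation % = (total − surface)/total × 100.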

[6] = F7siRNA-loaded LNP, 50:10:38.5:1.5, N/P ratio 6
[7] = FlucmRNA-loaded LNP, 50:10:38.5:1.5

Structure (SMILES): CCCCCC/C=C\COC(=O)CCCCCCCC(CCCCCCCC(=O)OC/C=C\CCCCCC)OC(=O)CCCN(C)C [L319]
ED50 in F7 knockdown [1]: 0.01 mg siRNA/kg

ζ-Average (nm) [2, 6]: 81.68 nm and 85.73 nm and 87.69 nm | PDI [2, 7]: 0.042 and 0.072 | ζ-Average (nm) ([2]; FlucmRNA-loaded LNP, lipid:DSPC:cholesterol:DMG-PEG2K 50:10:38.5:1.5): 68.60 nm and 71.49 nm | period for which quality remained good, −80° C. ([3]; maximum storage period 1 week): 0 week | period for which quality remained good, 5° C. ([3]; maximum storage period 5 weeks): 0 weeks | period for which quality remained good, 25° C. ([3]; maximum storage period 5 weeks): 1 weeks | period for which quality remained good, 40° C. (weeks) ([3]; maximum storage period 5 weeks): 0 weeks | % siRNA encapsulation [5, 6]: 99.1% and 97.6% | % mRNA encapsulation [5, 7]: 99.0% and 99.04%
Structure (SMILES): CCCCC/C=C\C/C=C\CCCCCCCCC(CCCCCCCC/C=C\C/C=C\CCCCC)OC(=O)CCCN(C)C [MC3, D-Lin-MC3-DMA, reference compound]
F7 enzyme activity (Ratio using MC3 as 1) ([4]; relative plasma F7 activity of MC3 LNP as 1): 1 | F7 enzyme activity (%) ([4]; untreated mice as 100%): 2.5% | ED50 in F7 knockdown [1]: 0.005 mg siRNA/kg

Structure (SMILES): CCCCC/C=C\C/C=C\CCCCCCCCOC1(OCCCCCCCC/C=C\C/C=C\CCCCC)CCN(C)CC1 [YSK05]
ED50 in F7 knockdown [1]: 0.06 mg siRNA/kg

Structure (SMILES): CCCCCCCCCCC(O)CN(CCCCC1NC(=O)C(CCCCN(CC(O)CCCCCCCCCC)CC(O)CCCCCCCCCC)NC1=O)CC(O)CCCCCCCCCC (stereo not drawn) [cKK-E12]
ED50 in F7 knockdown [1]: 0.002 mg siRNA/kg

Reference: patent US12458605B2, “Lipid nanoparticle” (National University Corporation Hokkaido University, priority 2020, dated 2025)
